These results are taken from US10807959B2, “WDR5-MLL1 inhibitors and modulators” (Vanderbilt University, priority 2018, dated 2020).

Assay [1] concerns the target T1, WDR5 (Homo sapiens (Human), UniProt P61964). The assay is described as follows: TR-FRET binding assay, displacement of 10mer-Thr-FAM probe from His-tagged WDR5. The settings on record: Inhibition of WDR5 by TR-FRET assay. As to the method: The LanthaScreenTM Elite Tb-anti-HIS Antibody from ThermoFisher Scientific was used for this purpose. […] The ratio of the 520 and 495 signals are then utilized to generate a dose-response curve to calculate an IC50 value. […] WDR[…] tag protein is used at 2 nM.
On the technique in general: Time-resolved FRET reads energy transfer from a long-lived donor to a nearby acceptor.

A further assay relates to MV4:11 cells. The assay is described as follows: Cellular viability / anti-proliferative activity, CellTiter-Glo, 7 day protocol. The following applies: 168 h. Type of assay: cell-based, human. The procedure:
Anti proliferative activity using MLL-harboring cell lines. MV4:11 cells are grown in RPMI-1640 media supplemented with 10% FBS and 1% penicillin/streptomycin. Viability assays are performed by dispensing […] into each well of an opaque 384-well plate and adding compounds at the indicated concentrations in a final volume of 32 μL and a final concentration of DMSO of 0.1% for all samples. After a set incubation period, 7 day protocol, the viability of cells in each well is assessed using the CellTiter-Glo assay (Promega), read on a GloMax 96 Microplane Luminometer (Promega). Serial dilutions of each cell type are included in all assays to generate standard curves and determine assay measurements are taken within the dynamic range of the instrument. GI50 values are calculated based on three biological replicates, each with three technical replicates. Data are expressed as mean plus/minus S.E.M.
On the technique in general: Cellular ATP, detected with luciferase, serves as a proxy for viable cell number.

Assay [2] concerns the target T1, WDR5. The assay is described as follows: Fluorescence polarization anisotropy (FPA) competition assay, displacement of FITC-MLL or 10mer-Thr-FAM peptide. It is filed as binding. An excerpt:
The assay is run in 384-well format and is read on a BioTek Cytation. […] Replicate values are fit to a 4-parameter fit in XLFit to generate a single IC50 value for each compound that is then converted to a Ki value. Experiments are repeated to generate a 2nd, independent Ki value; values from the two experiments are averaged to produce the reported Ki value for the compound.

Where [3] appears, read: cellular proliferation of MV4:11 human cancer cell lines, 7 day.
Where [4] appears, read: Inhibition of WDR5 by FPA assay.
The mark [5] stands for this setting: Table B2, WDR5 WIN-site binding affinity, values not less than 1 nM (FPA).
The mark [6] stands for this setting: Table C2, WDR5 WIN-site binding affinity, values not less than 1 nM (FPA).

With `COc1cc(OC)cc(C(C)NC(=O)c2cc(CNC3=NCCN3)cc(-c3ccc(F)nc3C)c2)c1` (stereo not drawn) [Example 7, 3-(((4,5-Dihydro-1H-imidazol-2-yl)amino)methyl)-N-(1-(3,5-dimethoxyphenyl)ethyl)-5-(6-fluoro-2-methylpyridin-3-yl)benzamide], at WDR5 [1], the Ki (in general, the dissociation constant of the complex between target and ligand, obtained from inhibition or displacement) came out at 0.11 nM. In addition, the GI50 (commonly the concentration at which growth is held to half of that of the control) in the assay on MV4:11 cells (setting [3]) was found to be 280 nM.
The like results for `Cc1cc(-c2cc(CNC3=NCCN3)cc(C(=O)NCc3ccc(Cl)c(C)c3)c2)cc(C)n1` [Example 41, N-(4-chloro-3-methylbenzyl)-3-(((4,5-dihydro-1H-imidazol-2-yl)amino)methyl)-5-(2,6-dimethylpyridin-4-yl)benzamide] were, in that order, < 0.1 nM and 170 nM.
The compound `COc1ccnc(CNC(=O)c2cc(CNC3=NCCC3)cc(-c3ccc(F)nc3C)c2)c1` [Example 53, 3-(((3,4-Dihydro-2H-pyrrol-5-yl)amino)methyl)-5-(6-fluoro-2-methylpyridin-3-yl)-N-((4-methoxypyridin-2-yl)methyl)benzamide] showed a Ki at WDR5 [1] of 0.53 nM. In addition, the GI50 with MV4:11 cells (setting [3]) was determined as 630 nM.
`Cc1cc(C(C)NC(=O)c2cc(CNC3=NCCC3)cc(-c3ccc(F)nc3C)c2)ncc1Cl` (stereo not drawn) [Example 54, N-(1-(5-Chloro-4-methylpyridin-2-yl)ethyl)-3-(((3,4-dihydro-2H-pyrrol-5-yl)amino)methyl)-5-(6-fluoro-2-methylpyridin-3-yl)benzamide]: the Ki on WDR5 [1] came out at 0.31 nM. In addition, the GI50 with MV4:11 cells (setting [3]) is 180 nM.
Turning to `Cc1cc(CNC(=O)c2cc(CNC3=NCCC3)cc(-c3ccc(F)cc3C)c2)ccc1Cl` [Example 64, N-(4-Chloro-3-methylbenzyl)-5-(((3,4-dihydro-2H-pyrrol-5-yl)amino)methyl)-4′-fluoro-2′-methyl-[1,1′-biphenyl]-3-carboxamide], the GI50 in the assay on MV4:11 cells (setting [3]) worked out at 280 nM.
With `O=C(NCc1ccc(Cl)c(Cl)c1)c1cc(Cn2ccnc2)cc(-c2ccc(F)cc2Cl)c1` [Example 116, 5-((1H-Imidazol-1-yl)methyl)-2′-chloro-N-(3,4-dichlorobenzyl)-4′-fluoro-[1,1′-biphenyl]-3-carboxamide], halving of growth in the assay on MV4:11 cells (setting [3]) (GI50) required 3800 nM.
In the case of `Cc1nc(F)ccc1-c1cc(Cn2ccnc2)cc(C(=O)NC(C2CC2)C2CC2)c1` [Example 133, 3-((1H-imidazol-1-yl)methyl)-N-(dicyclopropylmethyl)-5-(6-fluoro-2-methylpyridin-3-yl)benzamide], the Ki at WDR5 [2] (setting [4]) was determined as 3.5 nM; on WDR5 [1], 4.6 nM.
Turning to `Cc1ccnc(C(NC(=O)c2cc(Cn3ccnc3)cc(-c3ccc(F)nc3C)c2)C2CC2)c1` (stereo not drawn) [Example 137, 3-((1H-Imidazol-1-yl)methyl)-N-(cyclopropyl(4-methylpyridin-2-yl)methyl)-5-(6-fluoro-2-methylpyridin-3-yl)benzamide], the results for the Ki at WDR5 [2] (setting [4]) and at WDR5 [1] were < 1 nM and 2 nM, respectively.
As for `Cc1ccnc(C(NC(=O)c2cc(Cn3ccnc3)cc(-c3ccc(F)cc3Cl)n2)C2CC2)c1` (stereo not drawn) [Example 150, 4-((1H-Imidazol-1-yl)methyl)-6-(2-chloro-4-fluorophenyl)-N-(cyclopropyl(4-methylpyridin-2-yl)methyl)picolinamide], the inhibition constant (Ki) came out at 1.1 nM on WDR5 [2] (setting [4]) and 5.71 nM on WDR5 [1].
Turning to `Cc1cccc(CNC(=O)c2cc(Cn3ccnc3)cc(-c3ccc(F)cc3Cl)n2)n1` [Example 151, 4-((1H-Imidazol-1-yl)methyl)-6-(2-chloro-4-fluorophenyl)-N-((6-methylpyridin-2-yl)methyl)picolinamide], the Ki at WDR5 [2] (setting [4]) was 8.7 nM; at WDR5 [1], 32 nM.
The compound `Cc1cc(F)ccc1-c1cc(Cn2ccnc2C)cc(C(=O)NCc2ccc(Cl)c(Cl)c2)n1` [Example 156, N-(3,4-dichlorobenzyl)-6-(4-fluoro-2-methylphenyl)-4-((2-methyl-1H-imidazol-1-yl)methyl)picolinamide] gave a GI50 in the assay with MV4:11 cells (setting [3]) of 630 nM.
In the assay with MV4:11 cells (setting [3]), `Cc1nc(F)ccc1-c1cc(Cn2ccnc2C)cc(C(=O)NCc2ccc(Cl)c(Cl)c2)n1` [Example 164, N-(3,4-dichlorobenzyl)-6′-fluoro-2′-methyl-4-((2-methyl-1H-imidazol-1-yl)methyl)-[2,3′-bipyridine]-6-carboxamide] yielded a GI50 of 1100 nM.
As to `Cc1cnccc1-c1cc(Cn2ccnc2C)cc(C(=O)NCc2ccc(Cl)c(Cl)c2)n1` [Example 166, N-(3,4-Dichlorobenzyl)-3′-methyl-4-((2-methyl-1H-imidazol-1-yl)methyl)-[2,4′-bipyridine]-6-carboxamide], halving of growth in the assay with MV4:11 cells (setting [3]) (GI50) required 240 nM.
As to `COc1cc(CNC(=O)c2ccc(F)c(CNC3=NCCN3)c2)cc(OC)c1` [Example B15, 3-(((4,5-dihydro-1H-imidazol-2-yl)amino)methyl)-N-(3,5-dimethoxybenzyl)-4-fluorobenzamide], in the assay on MV4:11 cells (Homo sapiens, MV4:11 leukemia cells after a 7 day incubation period), growth was halved (GI50) at 893 nM. This counts as sub-micromolar.
In turn, `Cc1cc(C)nc(CNC(=O)c2ccc(F)c(CNC3=NCCN3)c2)n1` [Example B45] gave a Ki on WDR5 [2] (setting [5]) of 11.3 nM.
For the compound `Cc1cnc(CNC(=O)c2ccc(F)c(CNC3=NCCN3)c2)cn1` [Example B46], on WDR5 [2] (setting [5]), the affinity corresponds to a Ki of 3.96 nM.
At WDR5 [2] (setting [5]), `Cc1ccnc(C(NC(=O)c2cc(CNC3=NCCN3)c(F)cc2F)C2CC2)c1` (stereo not drawn) [Example B48] registered a Ki of 2.17 nM.
For `COc1cc(OC)cc(C(C)NC(=O)c2cc(CNC3=NCCN3)c(F)cc2F)c1` (stereo not drawn) [Example B49], on WDR5 [2] (setting [5]), the Ki turned out to be 1.06 nM.
As for `CCOc1ccc(C(=O)NC(c2cc(C)ccn2)C2CC2)cc1CNC1=NCCN1` (stereo not drawn) [Example B50], on WDR5 [2] (setting [5]), the affinity corresponds to a Ki of 12.4 nM.
At WDR5 [2] (setting [5]), `CCOc1ccc(C(=O)NC(C)c2cc(OC)cc(OC)c2)cc1CNC1=NCCN1` (stereo not drawn) [Example B51, 3-(((4,5-dihydro-1H-imidazol-2-yl)amino)methyl)-N-(1-(3,5-dimethoxyphenyl)ethyl)-4-ethoxybenzamides] showed a Ki of 9.77 nM.
On the same count and under the same terms, with `COc1cc(OC)cc(C(C)NC(=O)c2ccc(OC(C)C)c(CNC3=NCCN3)c2)c1` (stereo not drawn) [Example B52, 3-(((4,5-dihydro-1H-imidazol-2-yl)amino)methyl)-N-(1-(3,5-dimethoxyphenyl)ethyl)-4-isopropoxybenzamide] the figure was 33 nM.
On the same count and under the same terms, the value for `CC(C)Oc1ccc(C(=O)NCc2ccc(Cl)c(Cl)c2)cc1CNC1=NCCN1` [Example B53] was 40.9 nM; that for `O=C(NCc1ccc(Cl)c(Cl)c1)c1cc(CNC2=NCCN2)cc(-c2ccc(F)cc2Cl)c1` [Example B54] was 1.12 nM; that for `Cc1cc(C)cc(CNC(=O)c2cc(CNC3=NCCN3)cc(-c3ccc(F)cc3Cl)c2)c1` [Example B55] was 1.27 nM.
In turn, `Cc1cc(CNC(=O)c2cc(CNC3=NCCN3)cc(-c3ccc(F)cc3Cl)c2)ccc1Cl` [Example B58] gave a Ki at WDR5 [2] (setting [5]) of 2.06 nM.
At WDR5 [2] (setting [5]), `Cc1ccncc1-c1cc(CNC2=NCCN2)cc(C(=O)NCc2cccc(F)n2)c1` [Example B89] showed a Ki of 4.39 nM. This Ki is about 2.1-fold higher than that of the compound before.
As to `Cc1cc(-c2cc(CNC3=NCCN3)cc(C(=O)NCc3cccc(F)n3)c2)ccn1` [Example B95], at WDR5 [2] (setting [5]), affinity was put at a Ki of 6.1 nM.
On to `COc1cc(OC)cc(C(C)NC(=O)c2ccc(OC(C)C)c(CNC3=NCCC3)c2)c1` (stereo not drawn) [Example B124], for which the Ki on WDR5 [2] (setting [5]) is > 33 nM.
For `CC(C)Oc1ccc(C(=O)NCc2ccc(Cl)c(Cl)c2)cc1CNC1=NCCC1` [Example B125], the Ki on WDR5 [2] (setting [5]) was > 33 nM.
For the compound `COc1cc(OC)cc(C(C)NC(=O)c2cc(CNC3=NCCN3)ccn2)c1` (stereo not drawn) [Example C20, 4-(((4,5-dihydro-1H-imidazol-2-yl)amino)methyl)-N-(1-(3,5-dimethoxyphenyl)ethyl)picolinamide], on WDR5 [2] (setting [6]), the Ki stood at 30.3 nM.
Same read-out and setting: the value for `COc1cc(OC)cc(C(C)NC(=O)c2cc(CNC3=NCCC3)ccn2)c1` (stereo not drawn) [Example C21, 4-(((3,4-dihydro-2H-pyrrol-5-yl)amino)methyl)-N-(1-(3,5-dimethoxyphenyl)ethyl)picolinamide] was 33 nM.
As to `Cc1cc(CNC(=O)c2cc(CNC3=NCCC3)cc(-c3ccc(F)cc3C)n2)ccc1Cl` [Example C23], the affinity at WDR5 [2] (setting [6]) corresponds to a Ki of 3.13 nM. Against the preceding compound, the Ki is about 11-fold lower.
On to `COc1cc(CNC(=O)c2cc(CNC3=NCCC3)cc(-c3ccc(F)cc3C)n2)cc(OC)c1` [Example C24], for which affinity at WDR5 [2] (setting [6]) was put at a Ki of 11.7 nM.
On WDR5 [2] (setting [6]), `COc1cc(CNC(=O)c2cc(CNC3=NCCC3)cc(-c3ccc(F)cc3C(F)(F)F)n2)cc(OC)c1` [Example C27] yielded a Ki of 1.58 nM.
Compound `Cc1cnc(C(C)NC(=O)c2cc(CNC3=NCCC3)cc(-c3ccc(F)cc3C(F)(F)F)n2)cc1Cl` (stereo not drawn) [Example C32] showed a Ki on WDR5 [2] (setting [6]) of 1.54 nM. This Ki and that of the compound before are within 1.5-fold of each other.
The compound `COc1cc(OC)cc(C(C)NC(=O)c2ccnc(CNC3=NCCN3)c2)c1` (stereo not drawn) [Example C34, 2-(((4,5-dihydro-1H-imidazol-2-yl)amino)methyl)-N-(1-(3,5-dimethoxyphenyl)ethyl)isonicotinamide] registered a Ki at WDR5 [2] (setting [6]) of 32.5 nM.
With `COc1cc(OC)cc(C(C)NC(=O)c2ccnc(CNC3=NCCC3)c2)c1` (stereo not drawn) [Example C35, 2-(((3,4-dihydro-2H-pyrrol-5-yl)amino)methyl)-N-(1-(3,5-dimethoxyphenyl)ethyl)isonicotinamide], the Ki on WDR5 [2] (setting [6]) came out at 44.1 nM.
